Measured values as given in patent US20040192553A1, “Inosine L-Arginine salt and uses thereof” (priority 2001, published 2004).

Legend:
[1] = Test of velocity of dissolution; assay type: physicochemical; details: 1.2 mmol added to 10 mL of water with stirring at room temperature
Description: Test of Velocity of Dissolution
Each of the following was added to separate containers containing 10 mL of water with stirring at room temperature: (a) a mixture (0.53 g) of 1.2 mmol of inosine and 1.2 mmol of L-arginine, (b) 1.2 mmol (0.53 g) of the inosine. L-arginine salt obtained in Example 1, and (3) 1.2 mmol (0.32 g) of inosine. The time period for complete dissolution was measured for each. The equimolar mixture of inosine and L-arginine required 50 seconds for complete dissolution. On the other hand, inosine. […] L-arginine salt were confirmed.

[2] = at normal temperatures; cited from earlier work
[3] = test system: Lawn seedlings (Western lawn: bent grass); test: Plant growth promoting effect, hydroponic culture of lawn seedlings; assay type: in vivo; details: hydroponics in HYPONEX diluted 2,000-fold, inosine concentration 20 ppm, after a month of culturing
Description: Plant Growth Promoting Effect
Lawn seedlings (Western lawn: bent grass) were raised and divided into two groups each containing 30 plants. Hydroponics were performed as follows. Both the control group and the inosine. L-arginine salt group were cultured using HYPONEX, diluted by a facter of 2,000. The HYPONEX diluted by a facter of 2000 alone was used as culture fluid for the control group. Inosine- L-arginine salt was added to the culture fluid to an inosine concentration of 20 ppm.
After a month of culturing, the average plant length, the average root length, the number of leaves for 30 plants, the number of branching of a stem for 30 plants, the weight for 30 plants, and the dried weight for 30 plants were measured for each group. From the Table, the effectiveness of inosine. L-arginine salt was confirmed.

Row | SMILES | time period for complete dissolution [1] | solubility in water [2] | Dried weight per 30 plants [3] | Number of branching per 30 plants [3] | Number of leaves per 30 plants [3] | Weight per 30 plants [3] | Average plant length ([3]; 30 plants) | Average root length ([3]; 30 plants)
1 | OC[C@H]1O[C@@H](n2cnc3c(O)ncnc32)[C@H](O)[C@@H]1O [inosine] | did not completely dissolve | about 1.6% | – | – | – | – | – | –
2 | N=C(N)NCCC[C@H](N)C(=O)O.OC[C@H]1O[C@@H](n2cnc3c(O)ncnc32)[C@H](O)[C@@H]1O [inosine · L-arginine salt, inosine. L-arginine salt] | dissolved immediately | – | 0.0434 g | 37 | 102 | 0.13 g | 6.0 cm | 5.0 cm
